“And” between values parts separate entries of the source, which are not always exact repeats. Equal entries are not always repeated.
What was measured:
[1] = In vitro dissolution test (compartment diffusion through dialysis membrane, sink condition); format: physicochemical
Method: The dissolution rate of the Fluticasone propionate form A nanocrystals of the nanosuspension of the invention was assessed and compared to the dissolution rate of a standard Fluticasone propionate form 1 micronized material (reference sample). Dissolution profiles of nanocrystals of Fluticasone propionate form A of two nanosuspensions of the invention and of Fluticasone propionate form 1 micronized were performed using a dissolution method. The study was performed using a compartment diffusion analysis through a dialysis membrane and sink condition. The sink condition was achieved through the use of a receptor fluid containing 30 mM phosphate buffer, pH 7.4 with 5% HPβCD cyclodextrins and also by a complete replacement of the buffer every 24 hours to stay below the saturation point. The saturation point was estimated to be 5 μg/g under those experimental conditions and the measurements performed as well as the buffer replacement have shown a maximum concentration of 1.5 μg/g. The study was conducted at a temperature of 37° C. The details of the dissolution test method are provided below: A 5-fold dilution with the formulation vehicle (placebo solution containing all the formulation excipients including the surfactants) of two 0.1% w/w Fluticasone propionate form A nanosuspensions was conducted to obtain a final concentration of 0.02% w/w Fluticasone propionate inside the dialysis device. Fluticasone propionate form 1 micronized was suspended in the same phosphate buffer used in the receiving compartment of the dialysis system. Fluticasone propionate release was carried at 1-2 RPM. […] These aliquots were immediately centrifuged and the measurements were performed by HPLC

[2] = 14-day repeated dose toxicokinetic study, topical application to eyelid margin; design: species or system Beagle dogs; settings: dog, in vivo; for Cmax / Tmax / AUC(0-t) / AUC0-24 h: Beagle, topical or ocular; for AUC(0-t): AUC0-24 h
Source text: The purpose of this study was to evaluate the toxicokinetic of fluticasone propionate Form A nanosuspensions of the invention (see Table 10 below) administered via topical application directly to the rim (margin) of upper and lower eyelids of both eyes of Beagle dogs.
Fifty naïve Beagle dogs (25 males and 25 females), approximately 5-6 months old and weighing 5.7 to 8.8 kg for males and females at the outset of the study were assigned to treatment groups (groups 1-4) and to vehicle group.
Male and female Beagle dogs were dosed with fluticasone propionate at 1.6, 9.6, and 32 μg/day (bilateral QD topical application) or at 64 μg/day (bilateral BID topical application) via eye lid applicator directly to the upper and lower eyelids of both eyes once or twice daily (minimum of 6 hours between doses) for 14 consecutive days.
Blood for toxicokinetic evaluation was collected from all animals at selected time points on Days 1 and 14.
Ophthalmology examinations were performed prior to treatment initiation, during the first and second weeks of dosing and during the last week of recovery. Eyes were scored once daily according to the modified Draize scale.
The reversibility of the effects of Fluticasone Propionate nanosuspension was assessed with a 14-day recovery period.

[3] = Particle size distribution by laser diffraction (Horiba LA-950) during preparation; format: physicochemical; settings: for particle size (D50—median): materials used in the dissolution test
Method: The particle size of the isolated nanocrystals was evaluated using a laser scattering Particle size distribution analyzer (Horiba LA-950).
4000 g of vehicle 1 were introduced into a 10 L process vessel containing a stir bar, by filtration through a PES 0.2 μm media and were set aside for further use. In a 2 L beaker, 15.04 g of the fluticasone propionate Form A nanocrystals were introduced together with some vehicle 1. […] This concentrated slurry was subject to high-shear, high-speed mixing at 6000±10 RPM for 10 minutes and the particle size distribution was tested by laser diffraction on a Horiba LA-950S2 PSD analyzer.
The 1% w/w fluticasone propionate Form A nanocrystals slurry was subject to high-shear, high-speed mixing at 6000±10 RPM for 10 minutes and the particle size distribution was tested by laser diffraction using a Horiba LA-95052 PSD analyzer.
The particle size distribution was tested by laser diffraction using a Horiba LA-950S2 PSD analyzer.

[4] = particle size at preparation, Horiba LA-950
[5] = time point 3 h, 37° C., listed as Fluticasone propionate form A nanocrystals
[6] = time point 5 h, 37° C., listed as Fluticasone propionate form A nanocrystals
[7] = time point 19 h, 37° C., listed as Fluticasone propionate form A nanocrystals
[8] = time point 24 h, 37° C., listed as Fluticasone propionate form A nanocrystals
[9] = time point 48 h, 37° C., listed as Fluticasone propionate form A nanocrystals
[10] = time point 72 h, 37° C., listed as Fluticasone propionate form A nanocrystals

CCC(=O)O[C@]1(C(=O)SCF)[C@H](C)C[C@H]2[C@@H]3C[C@H](F)C4=CC(=O)C=C[C@]4(C)[C@@]3(F)[C@@H](O)C[C@@]21C [Fluticasone Propionate, fluticasone propionate]
saturation point ([1]; receptor fluid: 30 mM phosphate buffer, pH 7.4 with 5% HPβCD, 37° C.): ~5 µg/g | Cmax ([2]; both sexes, 1.6 ug/day, Cmax): 0.0281 ± 0.0266 ng/mL | Tmax ([2]; both sexes, 1.6 ug/day, Tmax): 45 min | AUC(0-t) ([2]; both sexes, 9.6 ug/day): 0.191 ± 0.335 ng·h/mL | Cmax ([2]; both sexes, 9.6 ug/day, Cmax): 0.0608 ± 0.0487 ng/mL | Tmax ([2]; both sexes, 9.6 ug/day, Tmax): 30 min | AUC(0-t) ([2]; both sexes, 32 ug/day): 0.481 ± 0.361 ng·h/mL | Cmax ([2]; both sexes, 32 ug/day, Cmax): 0.13 ± 0.155 ng/mL | Tmax ([2]; both sexes, 32 ug/day, Tmax): 30 min | AUC(0-t) ([2]; both sexes, 64 ug/day): 0.914 ± 0.413 ng·h/mL | Cmax ([2]; both, 1.6 ug/day): 0.0324 ± 0.0264 ng/mL | Tmax ([2]; both, 1.6 ug/day): 30 min | AUC0-24 h ([2]; both, 9.6 ug/day): 0.101 ± 0.102 ng·h/mL | Cmax ([2]; both, 9.6 ug/day): 0.0798 ± 0.07 ng/mL | Tmax ([2]; both, 9.6 ug/day): 30 min | AUC0-24 h ([2]; both, 32 ug/day): 0.482 ± 0.407 ng·h/mL | Cmax ([2]; both, 32 ug/day): 0.25 ± 0.219 ng/mL | Tmax ([2]; both, 32 ug/day): 30 min | AUC0-24 h ([2]; both, 64 ug/day): 0.76 ± 0.188 ng·h/mL | exposure versus dose [2]: dose-dependent | gender-related differences in exposure [2]: no discernable gender-related differences in exposure

CCC(=O)O[C@]1(C(=O)SCF)[C@H](C)C[C@H]2[C@@H]3C[C@H](F)C4=CC(=O)C=C[C@]4(C)[C@@]3(F)[C@@H](O)C[C@@]21C [Micronized Fluticasone propionate form 1, fluticasone propionate]
particle size (D50—median) ([3]; listed as Fluticasone propionate form 1 micronized material): 4.64 μm | particle size (D50—median) ([3]; listed as micronized Fluticasone propionate form 1): 4.64 μm | % Dissolution Average % ([1]; time point 3 h, 37° C.): 0.7% | % Dissolution Tube #1 ([1]; time point 3 h, 37° C.): 0.8% | % Dissolution Tube #2 ([1]; time point 3 h, 37° C.): 0.5% | % Dissolution Tube #3 ([1]; time point 3 h, 37° C.): 0.9% | % Dissolution Average % ([1]; time point 5 h, 37° C.): 2.6% | % Dissolution Tube #1 ([1]; time point 5 h, 37° C.): 2.9% | % Dissolution Tube #2 ([1]; time point 5 h, 37° C.): 1.9% | % Dissolution Tube #3 ([1]; time point 5 h, 37° C.): 3.0% | % Dissolution Average % ([1]; time point 19 h, 37° C.): 19.4% | % Dissolution Tube #1 ([1]; time point 19 h, 37° C.): 20.9% | % Dissolution Tube #2 ([1]; time point 19 h, 37° C.): 17.1% | % Dissolution Tube #3 ([1]; time point 19 h, 37° C.): 20.3% | % Dissolution Average % ([1]; time point 24 h, 37° C.): 22.6% | % Dissolution Tube #1 ([1]; time point 24 h, 37° C.): 24.2% | % Dissolution Tube #2 ([1]; time point 24 h, 37° C.): 20.2% | % Dissolution Tube #3 ([1]; time point 24 h, 37° C.): 23.5% | % Dissolution Average % ([1]; time point 48 h, 37° C.): 48.6% | % Dissolution Tube #1 ([1]; time point 48 h, 37° C.): 51.1% | % Dissolution Tube #2 ([1]; time point 48 h, 37° C.): 44.0% | % Dissolution Tube #3 ([1]; time point 48 h, 37° C.): 50.6% | % Dissolution Average % ([1]; time point 72 h, 37° C.): 73.4% | % Dissolution Tube #1 ([1]; time point 72 h, 37° C.): 77.4% | % Dissolution Tube #2 ([1]; time point 72 h, 37° C.): 66.7% | % Dissolution Tube #3 ([1]; time point 72 h, 37° C.): 76.2%

CCC(=O)O[C@]1(C(=O)SCF)[C@H](C)C[C@H]2[C@@H]3C[C@H](F)C4=CC(=O)C=C[C@]4(C)[C@@]3(F)[C@@H](O)C[C@@]21C [fluticasone propionate]
particle size (D50—median) [3]: 0.434 μm | D50 [3, 4]: 0.2153 μm | D90 [3, 4]: 0.6073 μm | dissolution profile compared with Fluticasone propionate form 1 micronized material ([1]; despite different particle size): similar | % Dissolution Average % ([1]; time point 1 h, 37° C.): 0.0% | % Dissolution Tube #1 ([1]; time point 1 h, 37° C.): 0.0% | % Dissolution Tube #2 ([1]; time point 1 h, 37° C.): 0.0% | % Dissolution Tube #3 ([1]; time point 1 h, 37° C.): 0.0% | % Dissolution Average % [1, 5]: 0.8% and 0.7% | % Dissolution Tube #1 [1, 5]: 0.2% and 0.6% | % Dissolution Tube #2 [1, 5]: 1.4% and 0.5% | % Dissolution Tube #3 [1, 5]: 0.7% and 0.8% | % Dissolution Average % [1, 6]: 2.2% and 2.3% | % Dissolution Tube #1 [1, 6]: 1.3% and 2.4% | % Dissolution Tube #2 [1, 6]: 2.8% and 2.0% | % Dissolution Tube #3 [1, 6]: 2.4% and 2.6% | % Dissolution Average % [1, 7]: 17.8% and 19.0% | % Dissolution Tube #1 [1, 7]: 14.5% and 19.0% | % Dissolution Tube #2 [1, 7]: 20.4% and 18.2% | % Dissolution Tube #3 [1, 7]: 18.7% and 19.7% | % Dissolution Average % [1, 8]: 21.3% and 22.4% | % Dissolution Tube #1 [1, 8]: 17.5% and 22.4% | % Dissolution Tube #2 [1, 8]: 24.0% and 21.5% | % Dissolution Tube #3 [1, 8]: 22.4% and 23.2% | % Dissolution Average % [1, 9]: 46.2% and 48.5% | % Dissolution Tube #1 [1, 9]: 38.7% and 49.1% | % Dissolution Tube #2 [1, 9]: 51.4% and 45.6% | % Dissolution Tube #3 [1, 9]: 48.6% and 50.9% | % Dissolution Average % [1, 10]: 70.5% and 73.9% | % Dissolution Tube #1 [1, 10]: 59.6% and 75.1% | % Dissolution Tube #2 [1, 10]: 78.1% and 69.1% | % Dissolution Tube #3 [1, 10]: 74.0% and 77.7%

Source: patent publication US20220241296A1, “PROCESS FOR THE PREPARATION OF STERILE OPHTHALMIC AQUEOUS FLUTICASONE PROPIONATE FORM A NANOCRYSTALS SUSPENSIONS” (NICOX OPHTHALMICS, INC., priority 2019, published 2022)
